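Five concentrations, 48 hours, 96-well plates. GI50 = concentration required for 50% inhibition of growth. TGI marks complete inhibition of growth.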
Experiments:
Assay in all cases: inhibition of tumour cell growth, NCI panel, 48 h
[1] = tested on: 786-0 renal
[2] = tested on: A498 renal
[3] = tested on: A549 NSCLC
[4] = tested on: ACHN renal
[5] = tested on: BT-549 breast
[6] = tested on: CCRF-CEM leukemia
[7] = tested on: COLO 205 colon
[8] = tested on: DU-145 prostate
[9] = tested on: EKVX NSCLC
[10] = tested on: HCC-2998 colon
[11] = tested on: HCT-116 colon
[12] = tested on: HCT-15 colon
[13] = tested on: HL-60(TB) leukemia
[14] = tested on: HOP-62 NSCLC
[15] = tested on: HOP-92 NSCLC
[16] = tested on: HS 578T breast
[17] = tested on: IGROV1 ovarian
[18] = tested on: K-562 leukemia
[19] = tested on: KM12 colon
[20] = tested on: LOX IMVI melanoma
[21] = tested on: M14 melanoma
[22] = tested on: MALME-3M melanoma
[23] = tested on: MCF7 breast
[24] = tested on: MDA-MB-231 breast
[25] = tested on: MDA-MB-435
[26] = tested on: MDA-MB-468 breast
[27] = tested on: MOLT-4 leukemia
[28] = tested on: NCI-H226 lung
[29] = tested on: NCI-H23 lung
[30] = tested on: NCI-H460 lung
[31] = tested on: OVCAR-4 ovarian
[32] = tested on: OVCAR-5 ovarian
[33] = tested on: OVCAR-8 ovarian
[34] = tested on: PC-3 prostate
[35] = tested on: RPMI-8226 leukemia
[36] = tested on: RXF 393 renal
[37] = tested on: SF-268 CNS
[38] = tested on: SF-295 CNS
[39] = tested on: SF-539 CNS
[40] = tested on: SK-MEL-2 melanoma
[41] = tested on: SK-MEL-28 melanoma
[42] = tested on: SK-MEL-5 melanoma
[43] = tested on: SK-OV-3 ovarian
[44] = tested on: SN12C renal
[45] = tested on: SNB-19 CNS
[46] = tested on: SNB-75 CNS
[47] = tested on: SR leukemia
[48] = tested on: T-47D breast
[49] = tested on: TK-10 renal
[50] = tested on: U251 CNS
[51] = tested on: UACC-257 melanoma
[52] = tested on: UACC-62 melanoma
[53] = tested on: UO-31 renal

`CSc1ccc(C(=O)Nc2ccc3nn(/C(C#N)=C/c4ccccn4)nc3c2)cc1` was tested, and the GI50 [1] was 0.776 µM, the TGI [1] was 1.5 µM and the GI50 [2] was 5.57 µM. The TGI [2] was 11.9 µM, the GI50 [3] was 2.2 µM and the TGI [3] was 11 µM. The GI50 [4] was 0.808 µM, the TGI [4] was 1.6 µM and the GI50 [5] was 0.92 µM. For the same compound, the TGI [5] was 1.95 µM, the GI50 [6] was 0.619 µM and the TGI [6] was 50 µM. It also gave a GI50 [7] of 0.834 µM, a TGI [7] of 1.59 µM and a GI50 [8] of 1.25 µM. The TGI [8] was 3.85 µM, the GI50 [9] was 1.26 µM and the TGI [9] was 5.95 µM. The GI50 [10] was 0.854 µM, the TGI [10] was 1.58 µM and the GI50 [11] was 0.822 µM. For the same compound, the TGI [11] was 1.64 µM, the GI50 [12] was 0.511 µM and the TGI [12] was 1.38 µM. It also gave a GI50 [13] of 0.544 µM, a TGI [13] of 2.19 µM and a GI50 [14] of 1.75 µM. For the same compound, the TGI [14] was 6.64 µM, the GI50 [15] was 0.677 µM and the TGI [15] was 1.93 µM. It also gave a GI50 [16] of 1.7 µM, a TGI [16] of 12.6 µM and a GI50 [17] of 0.902 µM. The TGI [17] was 1.98 µM, the GI50 [18] was 0.424 µM and the TGI [18] was 3.3 µM. It also gave a GI50 [19] of 1.06 µM, a TGI [19] of 3.08 µM and a GI50 [20] of 0.664 µM. For the same compound, the TGI [20] was 1.34 µM, the GI50 [21] was 0.866 µM and the TGI [21] was 1.88 µM. The GI50 [22] was 0.797 µM, the TGI [22] was 1.96 µM and the GI50 [23] was 0.687 µM. It also gave a TGI [23] of 1.65 µM, a GI50 [24] of 0.842 µM and a TGI [24] of 1.74 µM. The GI50 [25] was 0.759 µM, the TGI [25] was 2.56 µM and the GI50 [26] was 0.558 µM. The TGI [26] was 1.36 µM, the GI50 [27] was 0.658 µM and the TGI [27] was 2.27 µM. It also gave a GI50 [28] of 1.64 µM, a TGI [28] of 9.69 µM and a GI50 [29] of 0.769 µM. For the same compound, the TGI [29] was 1.54 µM, the GI50 [30] was 0.934 µM and the TGI [30] was 2.11 µM. It also gave a GI50 [31] of 1.74 µM, a TGI [31] of 9.64 µM and a GI50 [32] of 0.99 µM. The TGI [32] was 2.51 µM, the GI50 [33] was 1.48 µM and the TGI [33] was 14.2 µM. It also gave a GI50 [34] of 1.51 µM, a TGI [34] of 6.33 µM and a GI50 [35] of 0.901 µM. It also gave a TGI [35] of 2.97 µM, a GI50 [36] of 0.699 µM and a TGI [36] of 1.36 µM. It also gave a GI50 [37] of 1.78 µM, a TGI [37] of 8.87 µM and a GI50 [38] of 2.36 µM. For the same compound, the TGI [38] was 9.15 µM, the GI50 [39] was 0.811 µM and the TGI [39] was 1.53 µM. For the same compound, the GI50 [40] was 0.896 µM, the TGI [40] was 1.9 µM and the GI50 [41] was 0.885 µM. For the same compound, the TGI [41] was 1.82 µM, the GI50 [42] was 1.39 µM and the TGI [42] was 4.7 µM. For the same compound, the GI50 [43] was 5.18 µM, the TGI [43] was 17.5 µM and the GI50 [44] was 1.14 µM. It also gave a TGI [44] of 2.84 µM, a GI50 [45] of 2.14 µM and a TGI [45] of 8.79 µM. It also gave a GI50 [46] of 0.948 µM, a TGI [46] of 8.25 µM and a GI50 [47] of 0.327 µM. The TGI [47] was 4.18 µM, the GI50 [48] was 1.27 µM and the TGI [48] was 10.9 µM. For the same compound, the GI50 [49] was 0.935 µM, the TGI [49] was 2.2 µM and the GI50 [50] was 0.903 µM. For the same compound, the TGI [50] was 1.89 µM, the GI50 [51] was 1.28 µM and the TGI [51] was 4.19 µM. It also gave a GI50 [52] of 0.819 µM, a TGI [52] of 1.72 µM and a GI50 [53] of 0.712 µM. It also gave a TGI [53] of 1.39 µM.
